A word on the IC50: it is the concentration that inhibits the measured activity by half.

SMILES strings stand for the structures.

T1 sequence (Q16602 23-461): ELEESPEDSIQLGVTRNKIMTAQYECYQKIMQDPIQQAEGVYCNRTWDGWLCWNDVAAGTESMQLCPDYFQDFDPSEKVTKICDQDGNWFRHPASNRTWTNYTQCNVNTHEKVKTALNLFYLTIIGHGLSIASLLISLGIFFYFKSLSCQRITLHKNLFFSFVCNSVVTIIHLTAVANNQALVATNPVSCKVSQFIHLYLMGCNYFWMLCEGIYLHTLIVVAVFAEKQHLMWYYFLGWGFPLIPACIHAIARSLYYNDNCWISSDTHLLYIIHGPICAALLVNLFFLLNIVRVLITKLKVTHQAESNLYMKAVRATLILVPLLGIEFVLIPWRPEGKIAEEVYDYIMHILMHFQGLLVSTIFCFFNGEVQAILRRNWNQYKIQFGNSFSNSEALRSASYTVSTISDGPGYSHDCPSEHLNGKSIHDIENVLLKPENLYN
T1 sequence (O60894 27-148): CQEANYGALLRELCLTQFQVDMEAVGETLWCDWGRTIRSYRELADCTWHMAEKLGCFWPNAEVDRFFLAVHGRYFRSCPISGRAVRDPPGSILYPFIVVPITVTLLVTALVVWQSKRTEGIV

The experiment concerns the target T1, Human CGRP1 Receptor (Homo sapiens, UniProt O60894+Q16602).
T1 construct: endogenous in cells; host or cells: SK-N-MC cells (membrane homogenate)
Kind of experiment: CGRP Binding Assay ([125I]-CGRP radioligand displacement, SK-N-MC membrane homogenate). The note with it: [125I]-CGRP displacement, SK-N-MC homogenate, room temperature 2 h; read-out: Human CGRP1 Receptor IC50. How it is done: Tissue Culture. SK-N-MC cells were grown at 37° C. in 5% CO2 as a monolayer in medium consisting of MEM with Earle's salts and L-glutamine (Gibco) supplemented with 10% fetal bovine serum (Gibco).
Cell Pellets. […] The cells were transferred from plates to polypropylene tubes (16×100 mm) and homogenized using a polytron. Homogenates were centrifuged at 32,000×g for 30 min. The pellets were resuspended in cold hypotonic lysis buffer with 0.1% mammalian protease inhibitor cocktail (Sigma) and assayed for protein concentration. The SK-N-MC homogenate was then aliquoted and stored at −80° C. until needed.
Radioligand Binding Assay. The compounds of invention were solubilized and carried through serial dilutions using 100% DMSO. Aliquots from the compound serial dilutions were further diluted 25 fold into assay buffer (50 mM Tris-Cl pH 7.5, 5 mM MgCl2, 0.005% Triton X-100) and transferred (volume 50 μl) into 96 well assay plates. […] SK-N-MC pellets were thawed, diluted in assay buffer with fresh 0.1% mammalian protease inhibitor cocktail (Sigma), and homogenized again. SK-N-MC homogenate (5 μg/well) was added in a volume of 100 μl. The assay plates were then incubated at room temperature for 2 h. Assays were stopped by addition of excess cold wash buffer (20 mM Tris-Cl pH 7.5, 0.1% BSA) immediately followed by filtration over glass fiber filters (Whatman GF/B) previously soaked in 0.5% PEI. Non-specific binding was defined with 1 μM beta-CGRP. Protein bound radioactivity was determined using a gamma or scintillation counter.
Background: Loss of bound radioactivity is the signal in a displacement assay; it reports binding, not function.
As to `Cc1cc(CC(CC(=O)N2CCC(N3Cc4ccccc4NC3=O)CC2)c2ccc(CO)cn2)cc2cn[nH]c12` (racemic) [Example 27, (±)-3-(1-(3-(5-(Hydroxymethyl)pyridin-2-yl)-4-(7-methyl-1H-indazol-5-yl)butanoyl)piperidin-4-yl)-3,4-dihydroquinazolin-2(1H)-one], the IC50 was below 10 nM. Consider `Cc1cc(CC(CC(=O)N2CCC(N3Cc4ccccc4NC3=O)CC2)c2ccc(C=O)cn2)cc2cn[nH]c12` (racemic) [Example 28, (±)-6-(1-(7-Methyl-1H-indazol-5-yl)-4-oxo-4-(4-(2-oxo-1,2-dihydroquinazolin-3(4H)-yl)piperidin-1-yl)butan-2-yl)nicotinaldehyde], for which the IC50 was below 10 nM. Consider `Cc1cc(CC(CC(=O)N2CCC(N3Cc4ccccc4NC3=O)CC2)c2ccc(CN3CCCCC3)cn2)cc2cn[nH]c12` (racemic) [Example 29, (±)-3-(1-(4-(7-Methyl-1H-indazol-5-yl)-3-(5-(piperidin-1-ylmethyl)pyridin-2-yl)butanoyl)piperidin-4-yl)-3,4-dihydroquinazolin-2(1H)-one], for which the IC50 was below 10 nM.

`Cc1cc(CC(NC(=O)N2CCC(N3Cc4ccccc4NC3=O)CC2)c2cccc(Br)n2)cc2cn[nH]c12` (racemic) [Example 30, (±)-N-(1-(6-Bromopyridin-2-yl)-2-(7-methyl-1H-indazol-5-yl)ethyl)-4-(2-oxo-1,2-dihydroquinazolin-3(4H)-yl)piperidine-1-carboxamide]: the IC50 is below 10 nM. `Cc1cc(CC(NC(=O)N2CCC(N3Cc4ccccc4NC3=O)CC2)c2ccccn2)cc2cn[nH]c12` (racemic) [Example 31, (±)-N-(2-(7-Methyl-1H-indazol-5-yl)-1-(pyridin-2-yl)ethyl)-4-(2-oxo-1,2-dihydroquinazolin-3(4H)-yl)piperidine-1-carboxamide]: the IC50 was below 10 nM. Then `Cc1cc(CC(NC(=O)N2CCC(N3Cc4ccccc4NC3=O)CC2)c2cc([N+](=O)[O-])ccn2)cc2cn[nH]c12` (racemic) [Example 32, (±)-N-(2-(7-Methyl-1H-indazol-5-yl)-1-(4-nitropyridin-2-yl)ethyl)-4-(2-oxo-1,2-dihydroquinazolin-3(4H)-yl)piperidine-1-carboxamide], with below 10 nM; and `Cc1cc(CC(NC(=O)N2CCC(N3Cc4ccccc4NC3=O)CC2)c2cc(F)ccn2)cc2cn[nH]c12` (racemic) [Example 33, (±)-N-(1-(4-Fluoropyridin-2-yl)-2-(7-methyl-1H-indazol-5-yl)ethyl)-4-(2-oxo-1,2-dihydroquinazolin-3(4H)-yl)piperidine-1-carboxamide], with below 10 nM; and `Cc1cc(CC(NC(=O)N2CCC(N3Cc4ccccc4NC3=O)CC2)c2ccc3ccccc3n2)cc2cn[nH]c12` (racemic) [Example 34, (±)-N-(2-(7-Methyl-1H-indazol-5-yl)-1-(quinolin-2-yl)ethyl)-4-(2-oxo-1,2-dihydroquinazolin-3(4H)-yl)piperidine-1-carboxamide], with below 10 nM. Take `Cc1cc(CC(NC(=O)N2CCC(N3Cc4cccc(F)c4NC3=O)CC2)c2ccc3ccccc3n2)cc2cn[nH]c12` (racemic) [Example 35, (±)-4-(8-Fluoro-2-oxo-1,2-dihydroquinazolin-3(4H)-yl)-N-(2-(7-methyl-1H-indazol-5-yl)-1-(quinolin-2-yl)ethyl)piperidine-1-carboxamide]: the IC50 is below 10 nM.

For `Cc1cc(CC(NC(=O)N2CCC(N3Cc4ccccc4NC3=O)CC2)c2cccc(-c3ccccc3)n2)cc2cn[nH]c12` (racemic) [Example 37, (±)-N-(2-(7-Methyl-1H-indazol-5-yl)-1-(6-phenylpyridin-2-yl)ethyl)-4-(2-oxo-1,2-dihydroquinazolin-3(4H)-yl)piperidine-1-carboxamide], the IC50 lay within 10 to 100 nM. The result for `Cc1cccc(C(Cc2cc(C)c3[nH]ncc3c2)NC(=O)N2CCC(N3Cc4ccccc4NC3=O)CC2)n1` (racemic) [Example 38, (±)-N-(2-(7-Methyl-1H-indazol-5-yl)-1-(6-methylpyridin-2-yl)ethyl)-4-(2-oxo-1,2-dihydroquinazolin-3(4H)-yl)piperidine-1-carboxamide] reads below 10 nM; that for `Cc1cc(CC(OC(=O)N2CCC(N3Cc4cccc(F)c4NC3=O)CC2)c2cccc(Br)n2)cc2cn[nH]c12` (racemic) [Example 39, (±)-1-(6-Bromopyridin-2-yl)-2-(7-methyl-1H-indazol-5-yl)ethyl 4-(8-fluoro-2-oxo-1,2-dihydroquinazolin-3(4H)-yl)piperidine-1-carboxylate], below 10 nM. In the case of `Cc1cc(CC(OC(=O)N2CCC(N3Cc4ccccc4NC3=O)CC2)c2cccc(Br)n2)cc2cn[nH]c12` (racemic) [Example 40, (±)-1-(6-Bromopyridin-2-yl)-2-(7-methyl-1H-indazol-5-yl)ethyl 4-(2-oxo-1,2-dihydroquinazolin-3(4H)-yl)piperidine-1-carboxylate], the IC50 is below 10 nM. Then `Cc1cc(CC(OC(=O)N2CCC(N3Cc4ccccc4NC3=O)CC2)c2cccc(OC(C)(C)C)n2)cc2cn[nH]c12` (racemic) [Example 41, (±)-1-(6-tert-Butoxypyridin-2-yl)-2-(7-methyl-1H-indazol-5-yl)ethyl 4-(2-oxo-1,2-dihydroquinazolin-3(4H)-yl)piperidine-1-carboxylate], with 100 to 1000 nM; and `Cc1cc(CC(OC(=O)N2CCC(N3Cc4ccccc4NC3=O)CC2)c2cccc(=O)[nH]2)cc2cn[nH]c12` (racemic) [Example 42, (±)-2-(7-Methyl-1H-indazol-5-yl)-1-(6-oxo-1,6-dihydropyridin-2-yl)ethyl 4-(2-oxo-1,2-dihydroquinazolin-3(4H)-yl)piperidine-1-carboxylate], with 100 to 1000 nM. As to `Cc1cc(CC(OC(=O)N2CCC(N3Cc4cccc(F)c4NC3=O)CC2)c2cccc(CC(C)C)n2)cc2cn[nH]c12` (racemic) [Example 43, (±)-1-(6-Isobutylpyridin-2-yl)-2-(7-methyl-1H-indazol-5-yl)ethyl 4-(8-fluoro-2-oxo-1,2-dihydroquinazolin-3(4H)-yl)piperidine-1-carboxylate], the IC50 is 10 to 100 nM. Then `Cc1cc(CC(OC(=O)N2CCC(N3Cc4cccc(F)c4NC3=O)CC2)c2cccc(Cc3cc(F)cc(F)c3)n2)cc2cn[nH]c12` (racemic) [Example 44, (±)-1-(6-(3,5-Difluorobenzyl)pyridin-2-yl)-2-(7-methyl-1H-indazol-5-yl)ethyl 4-(8-fluoro-2-oxo-1,2-dihydroquinazolin-3(4H)-yl)piperidine-1-carboxylate], with below 10 nM; and `Cc1cc(CC(OC(=O)N2CCC(N3Cc4cccc(F)c4NC3=O)CC2)c2cccc(C#N)n2)cc2cn[nH]c12` (racemic) [Example 45, (±)-1-(6-Cyanopyridin-2-yl)-2-(7-methyl-1H-indazol-5-yl)ethyl 4-(8-fluoro-2-oxo-1,2-dihydroquinazolin-3(4H)-yl)piperidine-1-carboxylate], with below 10 nM. `Cc1cc(CC(OC(=O)N2CCC(N3Cc4ccccc4NC3=O)CC2)c2cc(CO)ccn2)cc2cn[nH]c12` (racemic) [Example 46, (±)-1-(4-(Hydroxymethyl)pyridin-2-yl)-2-(7-methyl-1H-indazol-5-yl)ethyl 4-(2-oxo-1,2-dihydroquinazolin-3(4H)-yl)piperidine-1-carboxylate]: the IC50 was below 10 nM.

(Values after patent publication US7569578B2, “Heterocyclic anti-migraine agents” (Bristol-Meyers Squibb Company, priority 2003, dated 2009).)
